From patent publication US11969428B2, “Methods and pharmaceutical compositions for treating lymphoid malignancy” (priority 2011, dated 2024)

Tests used:
Experiment in all cases: Ambit KinomeScan screening
Assay type in all cases: binding
Settings in all cases: CAL-130 10 μM
NEK6 = molecular target: T1, NEK6 (Homo sapiens, UniProt Q9HC98)
T1 construct: unspecified tag; purchased Ambit (KinomeScan screening panel)
How it was run: (§1)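 CAL-130 was tested at 10 μM for its ability to block tagged kinases from binding an immobilized bait ligand across a 353-kinase panel. Values are expressed as percent of control binding, with lower numbers meaning stronger interaction and values above 35% classed as no hit.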

TYK2(JH2domain) = molecular target: T2, TYK2(JH2domain) (Homo sapiens, UniProt P29597)
T2 construct: TYK2(JH2domain); tag, kind not specified; purchased Ambit (KinomeScan screening service)
How it was run: as §1

PCTK1 = molecular target: T3, PCTK1 (Homo sapiens, UniProt Q00536)
T3 construct: unspecified tag ('tagged kinases'); purchased Ambit (KinomeScan screening)
How it was run: as §1

DDR2 = molecular target: T4, DDR2 (Homo sapiens, UniProt Q16832)
T4 construct: unspecified tag ("tagged kinases"); purchased Ambit (KinomeScan screening service)
How it was run: as §1

MAP4K2 = molecular target: T5, MAP4K2 (Homo sapiens, UniProt Q12851)
T5 construct: Ambit (KinomeScan screening)
How it was run: as §1

BMPR1A = molecular target: T6, BMPR1A (Homo sapiens, UniProt P36894)
T6 construct: purchased Ambit (KinomeScan screening service)
T6 sequence (P36894 24-532): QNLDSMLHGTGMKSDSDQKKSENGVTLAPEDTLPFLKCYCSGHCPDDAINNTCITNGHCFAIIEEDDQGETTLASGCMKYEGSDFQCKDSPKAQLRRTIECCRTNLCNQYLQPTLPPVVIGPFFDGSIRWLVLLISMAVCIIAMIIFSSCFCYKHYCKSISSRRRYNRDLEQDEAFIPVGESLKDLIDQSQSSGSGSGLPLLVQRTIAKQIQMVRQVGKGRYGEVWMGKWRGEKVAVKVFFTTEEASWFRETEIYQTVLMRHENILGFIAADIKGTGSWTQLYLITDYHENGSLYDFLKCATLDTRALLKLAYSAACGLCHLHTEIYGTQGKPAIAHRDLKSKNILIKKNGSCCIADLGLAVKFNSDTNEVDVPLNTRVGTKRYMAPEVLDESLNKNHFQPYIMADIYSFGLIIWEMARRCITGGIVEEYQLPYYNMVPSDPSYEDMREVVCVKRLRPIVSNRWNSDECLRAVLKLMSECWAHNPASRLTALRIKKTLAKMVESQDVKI
How it was run: as §1

CDC2L2 = molecular target: T7, CDC2L2 (Homo sapiens, UniProt Q9UQ88)
T7 construct: purchased Ambit (KinomeScan screening)
T7 sequence (Q9UQ88 whole entry): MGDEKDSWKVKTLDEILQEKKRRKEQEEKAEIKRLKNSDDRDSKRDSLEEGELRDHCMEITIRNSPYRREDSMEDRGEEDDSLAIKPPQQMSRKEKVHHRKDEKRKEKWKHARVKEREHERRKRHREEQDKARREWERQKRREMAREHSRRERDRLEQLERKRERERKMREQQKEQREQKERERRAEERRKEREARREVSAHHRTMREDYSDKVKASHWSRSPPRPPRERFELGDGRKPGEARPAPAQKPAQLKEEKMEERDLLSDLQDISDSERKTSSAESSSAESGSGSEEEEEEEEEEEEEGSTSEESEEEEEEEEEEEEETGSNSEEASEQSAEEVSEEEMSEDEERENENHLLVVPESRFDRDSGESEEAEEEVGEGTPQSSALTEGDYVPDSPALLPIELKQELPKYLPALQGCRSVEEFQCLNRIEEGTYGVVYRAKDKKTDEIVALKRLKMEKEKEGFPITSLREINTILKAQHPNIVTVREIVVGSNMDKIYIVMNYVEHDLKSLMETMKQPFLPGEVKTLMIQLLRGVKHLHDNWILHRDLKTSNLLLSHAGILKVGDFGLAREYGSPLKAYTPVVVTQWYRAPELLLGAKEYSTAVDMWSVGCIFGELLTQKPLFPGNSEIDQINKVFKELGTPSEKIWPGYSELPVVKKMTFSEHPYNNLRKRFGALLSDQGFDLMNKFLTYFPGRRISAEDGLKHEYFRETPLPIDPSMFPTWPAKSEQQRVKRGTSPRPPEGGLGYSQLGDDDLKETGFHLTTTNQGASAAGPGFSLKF
How it was run: as §1

EPHB1 = molecular target: T8, EPHB1 (Homo sapiens, UniProt P54762)
T8 construct: purchased Ambit (KinomeScan screening service)
How it was run: as §1

MST1R = molecular target: T9, MST1R (Homo sapiens, UniProt Q04912)
T9 construct: unspecified tag ('tagged kinases'); purchased Ambit (KinomeScan screening)
How it was run: as §1

MAP3K2 = molecular target: T10, MAP3K2 (Homo sapiens, UniProt Q9Y2U5)
T10 construct: Ambit (KinomeScan screening)
How it was run: as §1

RPS6KA3 = molecular target: T11, RPS6KA3 (Homo sapiens, UniProt P51812)
T11 construct: unspecified tag (tagged kinase); purchased Ambit (KinomeScan screening)
How it was run: as §1

IGF1R = molecular target: T12, IGF1R (Homo sapiens, UniProt P08069)
T12 construct: Ambit (KinomeScan screening)
How it was run: as §1

IRAK1 = molecular target: T13, IRAK1 (Homo sapiens, UniProt P51617)
T13 construct: Ambit (KinomeScan screening)
T13 sequence (P51617 whole entry): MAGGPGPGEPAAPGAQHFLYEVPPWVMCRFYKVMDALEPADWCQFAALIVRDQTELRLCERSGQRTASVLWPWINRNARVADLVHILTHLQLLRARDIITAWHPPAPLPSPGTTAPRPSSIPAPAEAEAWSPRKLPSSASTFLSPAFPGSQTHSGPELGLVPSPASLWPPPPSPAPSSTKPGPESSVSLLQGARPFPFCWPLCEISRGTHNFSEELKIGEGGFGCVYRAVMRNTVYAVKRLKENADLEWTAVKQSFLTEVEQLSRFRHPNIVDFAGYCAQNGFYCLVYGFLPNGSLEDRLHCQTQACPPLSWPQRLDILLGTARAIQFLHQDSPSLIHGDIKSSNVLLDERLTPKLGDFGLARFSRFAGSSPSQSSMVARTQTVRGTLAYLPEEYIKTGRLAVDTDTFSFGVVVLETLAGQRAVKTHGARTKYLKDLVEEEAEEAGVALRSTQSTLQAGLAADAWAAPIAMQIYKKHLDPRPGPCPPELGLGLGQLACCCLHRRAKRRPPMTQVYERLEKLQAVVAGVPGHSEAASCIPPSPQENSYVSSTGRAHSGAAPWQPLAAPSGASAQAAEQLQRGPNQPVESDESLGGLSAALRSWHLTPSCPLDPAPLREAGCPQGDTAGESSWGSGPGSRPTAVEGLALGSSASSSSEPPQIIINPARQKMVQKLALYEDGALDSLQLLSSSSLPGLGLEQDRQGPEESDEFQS
How it was run: as §1

ABL1(Y253F) = molecular target: T14, ABL1(Y253F) (Homo sapiens, UniProt P00519, Y253F)
T14 construct: unspecified tag ("tagged kinases"); purchased Ambit (KinomeScan screening)
How it was run: as §1

FLT3(K663Q) = molecular target: T15, FLT3(K663Q) (Homo sapiens, UniProt P36888, K663Q)
T15 construct: unspecified tag; purchased Ambit (KinomeScan screening service)
How it was run: as §1

SLK = molecular target: T16, SLK (Homo sapiens, UniProt Q9H2G2)
T16 construct: tag, kind not specified; purchased Ambit (KinomeScan screening service)
How it was run: as §1

TSSK1B = molecular target: T17, TSSK1B (Homo sapiens, UniProt Q9BXA7)
T17 construct: tag, kind not specified; purchased Ambit (KinomeScan screening service)
How it was run: as §1

PRKR = molecular target: T18, PRKR (Homo sapiens, UniProt P19525)
T18 construct: tag (kind not specified); purchased Ambit (KinomeScan screening service)
T18 sequence (P19525 whole entry): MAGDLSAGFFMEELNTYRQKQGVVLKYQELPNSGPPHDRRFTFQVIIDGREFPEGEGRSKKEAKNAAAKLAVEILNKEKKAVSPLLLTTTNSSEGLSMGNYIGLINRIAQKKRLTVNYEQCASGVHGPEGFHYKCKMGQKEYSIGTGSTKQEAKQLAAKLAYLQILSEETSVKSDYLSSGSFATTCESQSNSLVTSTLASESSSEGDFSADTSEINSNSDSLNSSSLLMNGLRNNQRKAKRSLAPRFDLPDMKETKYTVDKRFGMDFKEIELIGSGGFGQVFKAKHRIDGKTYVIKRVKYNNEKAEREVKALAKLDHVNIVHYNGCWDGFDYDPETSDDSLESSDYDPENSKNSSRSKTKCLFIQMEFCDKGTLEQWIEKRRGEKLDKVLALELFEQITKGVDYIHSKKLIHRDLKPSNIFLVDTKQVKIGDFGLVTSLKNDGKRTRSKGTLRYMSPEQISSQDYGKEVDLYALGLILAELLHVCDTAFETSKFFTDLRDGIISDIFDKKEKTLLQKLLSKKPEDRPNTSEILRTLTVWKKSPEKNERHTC
How it was run: as §1

TNIK = molecular target: T19, TNIK (Homo sapiens, UniProt Q9UKE5)
T19 construct: unspecified tag (tagged kinase); purchased Ambit (KinomeScan screening)
How it was run: as §1

RPS6KA1 = molecular target: T20, RPS6KA1 (Homo sapiens, UniProt Q15418)
T20 construct: unspecified tag (tagged kinase); purchased Ambit (KinomeScan screening)
T20 sequence (Q15418 whole entry): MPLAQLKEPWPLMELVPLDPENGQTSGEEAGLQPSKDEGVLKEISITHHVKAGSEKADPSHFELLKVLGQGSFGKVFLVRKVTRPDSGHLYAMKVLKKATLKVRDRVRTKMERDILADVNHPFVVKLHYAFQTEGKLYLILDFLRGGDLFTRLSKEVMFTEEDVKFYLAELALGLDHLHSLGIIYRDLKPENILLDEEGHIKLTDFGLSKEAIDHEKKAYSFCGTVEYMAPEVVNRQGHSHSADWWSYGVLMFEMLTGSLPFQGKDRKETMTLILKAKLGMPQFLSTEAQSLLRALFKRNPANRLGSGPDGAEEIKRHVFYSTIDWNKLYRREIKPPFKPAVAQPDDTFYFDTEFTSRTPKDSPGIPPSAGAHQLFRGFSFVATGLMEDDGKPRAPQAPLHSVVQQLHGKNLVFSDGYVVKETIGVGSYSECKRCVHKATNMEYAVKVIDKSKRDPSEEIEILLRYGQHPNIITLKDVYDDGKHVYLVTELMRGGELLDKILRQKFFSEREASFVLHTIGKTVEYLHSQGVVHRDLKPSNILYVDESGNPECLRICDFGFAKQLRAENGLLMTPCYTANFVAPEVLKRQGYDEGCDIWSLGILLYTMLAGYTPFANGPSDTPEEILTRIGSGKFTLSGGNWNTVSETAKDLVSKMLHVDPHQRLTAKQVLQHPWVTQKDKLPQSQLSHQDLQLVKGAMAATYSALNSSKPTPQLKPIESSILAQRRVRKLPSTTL
How it was run: as §1

MAK = molecular target: T21, MAK (Homo sapiens, UniProt P20794)
T21 construct: unspecified tag ('tagged kinases'); purchased Ambit (KinomeScan screening service)
How it was run: as §1

EPHA7 = molecular target: T22, EPHA7 (Homo sapiens, UniProt Q15375)
T22 construct: purchased Ambit (KinomeScan screening service)
How it was run: as §1

AKT3 = molecular target: T23, AKT3 (Homo sapiens, UniProt Q9Y243)
T23 construct: purchased Ambit (KinomeScan screening)
T23 sequence (Q9Y243 whole entry): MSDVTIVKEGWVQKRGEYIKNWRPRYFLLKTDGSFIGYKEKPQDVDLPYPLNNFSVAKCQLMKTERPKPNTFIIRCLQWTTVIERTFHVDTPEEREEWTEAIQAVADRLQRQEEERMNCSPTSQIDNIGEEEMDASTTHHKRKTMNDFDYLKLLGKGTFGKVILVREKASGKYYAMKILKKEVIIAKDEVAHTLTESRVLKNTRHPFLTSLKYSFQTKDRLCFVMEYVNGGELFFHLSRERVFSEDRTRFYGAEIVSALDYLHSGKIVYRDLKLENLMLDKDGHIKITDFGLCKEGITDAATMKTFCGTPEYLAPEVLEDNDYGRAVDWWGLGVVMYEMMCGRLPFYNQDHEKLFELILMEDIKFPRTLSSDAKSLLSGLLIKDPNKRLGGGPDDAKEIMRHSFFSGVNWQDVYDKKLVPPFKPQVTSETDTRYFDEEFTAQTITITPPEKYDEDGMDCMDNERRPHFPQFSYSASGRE
How it was run: as §1

CDK5 = molecular target: T24, CDK5 (Homo sapiens, UniProt Q00535)
T24 construct: purchased Ambit (KinomeScan screening)
How it was run: as §1

ROS1 = molecular target: T25, ROS1 (Homo sapiens, UniProt P08922)
T25 construct: unspecified tag (tagged kinase); purchased Ambit (KinomeScan screening)
How it was run: as §1

TLK2 = molecular target: T26, TLK2 (Homo sapiens, UniProt Q86UE8)
T26 construct: unspecified tag (tagged kinase); purchased Ambit (KinomeScan screening)
How it was run: as §1

YES = molecular target: T27, YES (Homo sapiens, UniProt P07947)
T27 construct: purchased Ambit (KinomeScan screening service)
T27 sequence (P07947 whole entry): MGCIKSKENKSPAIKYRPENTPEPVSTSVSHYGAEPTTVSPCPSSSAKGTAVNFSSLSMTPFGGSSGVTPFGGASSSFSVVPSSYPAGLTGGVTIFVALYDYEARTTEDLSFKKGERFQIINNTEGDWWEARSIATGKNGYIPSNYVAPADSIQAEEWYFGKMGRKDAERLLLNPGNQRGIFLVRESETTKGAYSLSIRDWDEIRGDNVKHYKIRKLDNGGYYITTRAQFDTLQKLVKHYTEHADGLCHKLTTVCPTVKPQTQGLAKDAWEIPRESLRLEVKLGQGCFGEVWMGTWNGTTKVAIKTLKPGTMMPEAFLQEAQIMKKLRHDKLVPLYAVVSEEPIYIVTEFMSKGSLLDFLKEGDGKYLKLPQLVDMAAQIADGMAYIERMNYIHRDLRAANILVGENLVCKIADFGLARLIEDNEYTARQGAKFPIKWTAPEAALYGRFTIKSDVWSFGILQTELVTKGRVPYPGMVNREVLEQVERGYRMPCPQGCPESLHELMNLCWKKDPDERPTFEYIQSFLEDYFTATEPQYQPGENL
How it was run: as §1

STK33 = molecular target: T28, STK33 (Homo sapiens, UniProt Q9BYT3)
T28 construct: purchased Ambit (KinomeScan screening service)
How it was run: as §1

CDK9 = molecular target: T29, CDK9 (Homo sapiens, UniProt P50750)
T29 construct: purchased Ambit (KinomeScan screening service)
How it was run: as §1

NDR2 = molecular target: T30, NDR2 (Homo sapiens, UniProt Q9Y2H1)
T30 construct: unspecified tag; purchased Ambit (KinomeScan screening panel)
How it was run: as §1

FRK = molecular target: T31, FRK (Homo sapiens, UniProt P42685)
T31 construct: unspecified tag ('tagged kinases'); purchased Ambit (KinomeScan screening service)
How it was run: as §1

JAK2(JH1domain) = molecular target: T32, JAK2(JH1domain) (Homo sapiens, UniProt O60674)
T32 construct: JAK2(JH1domain); purchased Ambit (KinomeScan screening)
How it was run: as §1

ABL1(F317I) = molecular target: T33, ABL1(F317I) (Homo sapiens, UniProt P00519, F317I)
T33 construct: unspecified tag ("tagged kinases"); purchased Ambit (KinomeScan screening)
How it was run: as §1

CAMK1D = molecular target: T34, CAMK1D (Homo sapiens, UniProt Q8IU85)
T34 construct: unspecified tag ("tagged kinases"); purchased Ambit (KinomeScan screening)
T34 sequence (Q8IU85 whole entry): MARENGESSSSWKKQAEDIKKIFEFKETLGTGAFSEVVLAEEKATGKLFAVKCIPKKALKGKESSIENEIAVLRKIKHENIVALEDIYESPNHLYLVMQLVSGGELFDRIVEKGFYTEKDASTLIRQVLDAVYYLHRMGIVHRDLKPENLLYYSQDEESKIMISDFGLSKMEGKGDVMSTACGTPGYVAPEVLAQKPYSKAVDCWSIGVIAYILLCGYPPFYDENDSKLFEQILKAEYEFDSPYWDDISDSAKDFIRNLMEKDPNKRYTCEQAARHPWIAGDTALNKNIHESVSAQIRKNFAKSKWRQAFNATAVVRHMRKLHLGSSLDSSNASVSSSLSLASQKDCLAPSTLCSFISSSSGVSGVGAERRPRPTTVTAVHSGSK
How it was run: as §1

DAPK3 = molecular target: T35, DAPK3 (Homo sapiens, UniProt O43293)
T35 construct: unspecified tag ("tagged kinases"); purchased Ambit (KinomeScan screening service)
How it was run: as §1

Measured: Percent of Control Binding

T1 sequence (Q9HC98 whole entry): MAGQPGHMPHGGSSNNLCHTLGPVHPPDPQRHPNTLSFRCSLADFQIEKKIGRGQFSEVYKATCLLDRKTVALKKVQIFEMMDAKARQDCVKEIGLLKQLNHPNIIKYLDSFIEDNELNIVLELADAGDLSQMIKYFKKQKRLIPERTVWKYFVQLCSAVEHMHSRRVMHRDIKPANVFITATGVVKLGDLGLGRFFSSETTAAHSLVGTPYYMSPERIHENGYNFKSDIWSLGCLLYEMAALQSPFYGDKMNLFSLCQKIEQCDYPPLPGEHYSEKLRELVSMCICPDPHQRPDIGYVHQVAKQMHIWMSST

Cc1ccccc1-n1c(C(C)Nc2nc(N)nc3nc[nH]c23)nc2cccc(C)c2c1=O (centres unmarked) [CAL-130]
100%: NEK6 | TYK2(JH2domain) | PCTK1 | DDR2 | MAP4K2 | BMPR1A | CDC2L2 | EPHB1 | MST1R | MAP3K2 | RPS6KA3 | IGF1R | IRAK1 | ABL1(Y253F) | FLT3(K663Q) | SLK | TSSK1B | PRKR | TNIK | RPS6KA1 | MAK | EPHA7 | AKT3 | CDK5 | ROS1 | TLK2 | YES | STK33 | CDK9 | NDR2 | FRK | JAK2(JH1domain) | ABL1(F317I) | CAMK1D | DAPK3
